The numbers were not newly measured in patent US20040009537A1, “Methods of modulating and of identifying agents that modulate intracellular calcium” (priority 2002, published 2004), which cites them from elsewhere.

In the data set the test system is HeLa cells. To be noted: HeLa cells treated with histamine; decrease from about 60-400 μM.

As to `NCCc1c[nH]cn1` [histamine], the ER free calcium was 1 to 50 µM.
